{
  "source": "patent US20160129117A1",
  "about": "“Novel Boronic Acid Compound Preparation” (NIPPON KAYAKU KABUSHIKI KAISHA, priority 2013, published 2016)",
  "origin": "cited, not measured here",
  "key": {"[1]": {"conditions": "in vivo"}},
  "note": "Where two headings read alike, the source gives them in different places.",
  "data": [
    {"molecule": "CC(C)C[C@H](NC(=O)[C@H](Cc1ccccc1)NC(=O)c1cnccn1)B(O)O", "note": "[bortezomib]", "values": [
      {"measurement": "total dose causing the peripheral nerve toxicity", "setting": "[1]", "result": "about 30 mg/m^2"},
      {"measurement": "incidence of grade 3 peripheral neuropathy", "setting": "intravenous administration", "result": 16, "unit": "%"},
      {"measurement": "incidence of grade 3 peripheral neuropathy", "setting": "subcutaneous administration", "result": 6, "unit": "%"}
    ]}
  ]
}
